Key:
Format in all cases: cell-based, rat
TNFα = TNFα release induced by LPS in mixed glial cells (ELISA); conditions: LPS 1 μg/mL
Protocol: (§1) TNFα is considered one of the most important pro-inflammatory cytokines. […] The production of TNFα induced by LPS was reduced by 33% at 10 μM and by 50% at 30 μM. […] To further confirm the anti-inflammatory potential of compound 5c we measured the expression of thre NOX2 enzyme, since this isoform has been widely described as being specific tomicroglial cells. As depicted in Fig. 6F, LPS (1 μg/mL) stimulation of primary glial cultures during 24 h increased the expression of NOX2 by 65.3% (p < 0.01) compared to basal conditions.
(§2) Figure 6 Nitrites (A), TNFα (B), iNOS (C) and NOX activity (E) blockade (D) and NOX2 production (F) by 5c in primary glial cultures stimulated with LPS (1 μg/mL), HO-1 expression induced by this compound after 24 h. […] NOX activity was measured after 4 h co-treatment with LPS and compound 5c. […]
Tumor necrosis factor-alpha (TNFα) concentrations were measured by specific quantitative sandwich ELISA kits (Preprotech, R&D Systems-bioNova, Madrid, Spain) following manufacturer instructions. TNFα levels in supernatant samples, obtained after treatments with culture media (Basal), LPS or LPS co-incubated with increasing concentrations of compound 5c, were measured following manufacturer instructions. […] Light absorption was measured in a microplate reader (Labtech, Offenburg, Germany). […]

iNOS = iNOS expression in LPS-stimulated glial cultures (western blot); conditions: 30 μM, LPS 1 μg/mL
Protocol: as §1, §2
(§3) After treatment, mixed glial cells were washed with cold PBS and lysed in 100 μl ice-cold lysis buffer (1% Nonident P-40, 10% glycerol, 137 mM NaCl, 20 mM Tris HCl pH 7.5, 1 μg/ml leupeptin, 1 mM phenylmethylsulfonyl fluoride, 20 mM NaF, 1 mM sodium pyrophosphate, and 1 mM Na3VO4). […] Peroxidase-conjugated secondary antibodies (1:10000) were used to detect proteins by enhanced chemiluminescence detected by Advance Western-blotting Detection Kit (GE Healthcare, Barcelona, Spain). […]

HO-1 = HO-1 expression in glial cultures (western blot); conditions: 30 μM, 24 h
Protocol: as §1, §2, §3

COc1cccc(C2C(C#N)=C(N)Oc3n[nH]c(C)c32)c1 (stereo not shown) [Compound 5c, 6-Amino-4-(3-methoxyphenyl)-3-methyl-2,4-dihydropyrano[2,3-c]pyrazole-5-carbonitrile]
Reduction of TNFα production induced by LPS (TNFα; 10 μM): 33%
Reduction of TNFα production induced by LPS (TNFα; 30 μM): 50%
Reduction of iNOS expression (iNOS): almost completely
HO-1 expression increase in glial cultures (HO-1): 2.3 times
